Measured values as given in ChEMBL document CHEMBL1799972, “Grandilodines A-C, biologically active indole alkaloids from Kopsia grandifolia” (J Nat Prod, 2011).

What was measured:
KB/VJ300 = assay: Reversal of multidrug-resistance in vincristine-resistant human KB/VJ300 cells in presence of 0.1 ug/ml vincristine; type: functional, cell-based
[1] = Cytotoxicity in vincristine-resistant human KB/VJ300 cells in presence of 0.1 ug/ml vincristine; type: cell-based
KB = assay: Cytotoxicity against vincristine-sensitive human KB cells in presence of 0.1 ug/ml vincristine; type: cell-based

SMILES | IC50 (KB/VJ300) | IC50 [1] | IC50 (KB)
COC(=O)[C@@H]1C[C@]23CCCN2CC[C@]2(C(=O)OC)c4ccccc4N(C(=O)OC)[C@]12CC3 [GRANDILODINE A] | 4.35 µg/mL | – | –
COC(=O)N1c2ccccc2[C@]23CCN4C(=O)C=C[C@]45CC[C@]12[C@@H](C5)C(=O)O3 [GRANDILODINE C] | 4.11 µg/mL | – | –
COC(=O)N1c2ccccc2[C@]23CCN4CC=C[C@]45CC[C@]12[C@@H](C5)C(=O)O3 [LAPIDILECTINE B] | 0.39 µg/mL | – | –
CC[C@]1(O)C[C@H]2CN(CCc3c([nH]c4ccccc34)[C@@](C(=O)OC)(c3cc4c(cc3OC)N(C=O)[C@H]3[C@@](O)(C(=O)OC)[C@H](OC(C)=O)[C@]5(CC)C=CCN6CC[C@]43[C@@H]65)C2)C1 [VINCRISTINE] | – | > 25 µg/mL | > 25 µg/mL
